pIC50: −log10 of the molar value.

In this assay the target is T1, A3 human recombinant receptor (Homo sapiens, UniProt P0DMS8).
T1 sequence (P0DMS8 1-318): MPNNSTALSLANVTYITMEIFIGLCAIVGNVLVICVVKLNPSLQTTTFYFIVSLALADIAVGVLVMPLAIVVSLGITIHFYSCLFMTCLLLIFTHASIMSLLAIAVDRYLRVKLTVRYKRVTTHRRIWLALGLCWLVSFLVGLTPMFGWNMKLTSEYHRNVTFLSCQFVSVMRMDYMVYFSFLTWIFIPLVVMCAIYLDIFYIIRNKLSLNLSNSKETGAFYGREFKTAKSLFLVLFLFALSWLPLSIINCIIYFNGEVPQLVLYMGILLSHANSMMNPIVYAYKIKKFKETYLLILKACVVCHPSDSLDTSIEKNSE
Nature of the assay: AequoScreen adenosine A3 receptor assay, antagonist mode (luminescence, against reference agonist IB-MECA). In kind it is cell-based. To be noted: AequoScreen cells expressing A3 human recombinant receptor and Gα16; inhibition of IB-MECA at EC80; duplicate determinations at 8 concentrations. The method, then:
AequoScreen™ (Euroscreen, Belgium) cell lines expressing the A3 human recombinant receptor and the promiscuous G protein Gα16 were used throughout the study. AequoScreen™ cells were cultured following recommended conditions for at least one week prior to the test. The day before the test, cells were harvested with PBS-EDTA, washed and re-suspended in BSA-DMEM12 (Dulbecco's Modified Eagles Medium—Ham's F12 with 0.1% BSA). Suspended cells were then incubated at room temperature with coelenterazine h overnight. For agonist and antagonist testing, 50 μl of the cell suspension were injected onto 50 μl of the test compound or control in 96-well plates, and the resulting emission of light measured for the determination of cell activation. After the first reading, and following an incubation time of 15-30 min, 100 μl of the reference agonist (IB-MECA) at a concentration equal to the EC80 of the day of the experiment were injected onto the cell suspension containing the test compounds. The resulting emission of light was measured for the determination of antagonistic effects. Light emission for agonist and antagonist tests was recorded using a Hamamatsu FDSS-6000 reader. For agonist data, percentages of activation were calculated on the basis of the activation (luminescence data) induced by the reference agonist at a saturating concentration (EC100). For antagonist data, percentages of inhibition were calculated on the basis of the activation (luminescence data) induced by the reference agonist at a concentration equal to the EC80. The test compounds were tested as duplicate determinations at 8 concentrations of 100, 10, 1, 0.1 μM and 10, 1, 0.1, and 0.01 nM for agonist activity and 50, 5, 0.5, 0.05 μM and 5, 0.5, 0.05, and 0.005 nM for antagonist activity. Dose-response data, EC50/IC50, from test compound was analyzed with XLfit (IDBS) software.
This assay may be used to determine the IC50 value for adenosine A3 antagonists according to the invention (see Example 42).
By pIC50 is commonly meant the negative decadic logarithm of the IC50, by convention in mol/L. As to `OCC12CNC(C(n3cnc4c(NCc5cccc(I)c5)ncnc43)O1)C2O` (single isomer, unassigned) [SPN0234], the pIC50 was 8.09. In the case of `OCC12CNC(C(n3cnc4c(NCc5cccc(I)c5)ncnc43)O1)C2O` (single isomer, unassigned) [SPN0240] it was 7.03; in that of `OC[C@@]12CO[C@@H]([C@H](n3cnc4c(NCc5cccc(I)c5)ncnc43)O1)[C@@H]2O` [SPN0169, (1S,3R,4R,7S)-7-Hydroxy-1-hydroxymethyl-3-(N6-(3-iodobenzyl)-adenin-9-yl)-2,5-dioxabicyclo[2:2:1]heptane], 6.81.

Turning to `OC[C@@]12CO[C@@H]([C@H](n3cnc4c(NCc5cccc(I)c5)nc(Cl)nc43)O1)[C@@H]2O` [SPN0174, (1S,3R,4R,7S)-7-Hydroxy-1-hydroxymethyl-3-(N6-(3-iodobenzyl)-2-chloro-adenin-9-yl)-2,5-dioxabicyclo[2:2:1]heptane], the pIC50 was 6.68. In the case of `CNC(=O)[C@]12CO[C@@H]([C@H](n3cnc4c(NCc5cccc(I)c5)nc(Cl)nc43)O1)[C@@H]2O` [SPN0175, (1R,3R,4R,7S)-(7-hydroxy-3-(N6-(3-iodobenzyl)-2-chloro-adenin-9-yl)-2,5-dioxabicyclo[2:2:1]hept-1-yl)-N-methylcarboxamide] it was 6.41; in that of `CNC(=O)[C@@]12CO[C@@H]([C@H](n3cnc4c(NCc5cccc(Br)c5)ncnc43)O1)[C@@H]2O` [SPN0186, (1R,3R,4R,7S)-(7-hydroxy-3-(N6-(3-bromobenzyl)-adenin-9-yl)-2,5-dioxabicyclo[2:2:1]hept-1-yl)-N-methylcarboxamide], 6.20; in that of `CNC(=O)[C@@]12CO[C@@H]([C@H](n3cnc4c(NCc5cccc(I)c5)ncnc43)O1)[C@@H]2N=[N+]=[N-]` [SPN0192, (1S,3R,4R,7S)-(7-azido-3-(N6-(3-iodobenzyl)-adenin-9-yl)-2,5-dioxabicyclo[2:2:1]hept-1-yl)-N-methylcarboxamide], 6.09. Regarding `CNC(=O)[C@@]12CO[C@@H]([C@H](n3cnc4c(NCc5cccc(I)c5)ncnc43)O1)[C@@H]2N` [SPN0195, (1S,3R,4R,7S)-(7-amino-3-(N6-(3-iodobenzyl)-adenin-9-yl)-2,5-dioxabicyclo[2:2:1]hept-1-yl)-N-methylcarboxamide], the pIC50 was 6.17. In the case of `CNC(=O)[C@@]12CN[C@@H]([C@H](n3cnc4c(NCc5cccc(I)c5)ncnc43)O1)[C@@H]2O` [SPN0235, (1R,3R,4R,7S)-(7-hydroxy-3-(N6-(3-iodobenzyl)-adenin-9-yl)-2-oxa-5-azabicyclo[2:2:1]hept-1-yl)-N-methylcarboxamide] it was 7.92. As to `CNC(=O)[C@@]12CN[C@@H]([C@H](n3cnc4c(N)ncnc43)O1)[C@@H]2O` [SPN0238, (1R,3R,4R,7S)-(7-hydroxy-3-(adenin-9-yl)-2-oxa-5-azabicyclo[2:2:1]hept-1-yl)-N-methylcarboxamide], the pIC50 is 6.76.

The values above are taken from patent US20100062994A1, “Adenosine Receptor Antagonists” (SANTARIS PHARMA A/S, priority 2006, published 2010).
